Measurements: the NIST ThermoML archive (doi:10.1021/acs.jced.8b00081)
± gives the expanded uncertainty stated by the source.

Experiment: wn = mass fraction of the nth substance listed
Conditions: 88.35 kPa, Liquid, Pycnometric method

[Cl-].[K+] [potassium chloride] + O
mass density (298.15 K, w1 = 0.2672): 1180 ± 12 kg/m3 | mass density (313.15 K, w1 = 0.29): 1192 ± 12 kg/m3
